Data published in BindingDB's records for patent US12202835 (Beijing Scitech-Mq Pharmaceuticals, 2025).

Experiments:
Assay in all cases: LANCE TR-FRET Assay
[1] = target: T1, Tyrosine-protein kinase Mer (Homo sapiens, UniProt Q12866)
T1 sequence (Q12866 whole entry): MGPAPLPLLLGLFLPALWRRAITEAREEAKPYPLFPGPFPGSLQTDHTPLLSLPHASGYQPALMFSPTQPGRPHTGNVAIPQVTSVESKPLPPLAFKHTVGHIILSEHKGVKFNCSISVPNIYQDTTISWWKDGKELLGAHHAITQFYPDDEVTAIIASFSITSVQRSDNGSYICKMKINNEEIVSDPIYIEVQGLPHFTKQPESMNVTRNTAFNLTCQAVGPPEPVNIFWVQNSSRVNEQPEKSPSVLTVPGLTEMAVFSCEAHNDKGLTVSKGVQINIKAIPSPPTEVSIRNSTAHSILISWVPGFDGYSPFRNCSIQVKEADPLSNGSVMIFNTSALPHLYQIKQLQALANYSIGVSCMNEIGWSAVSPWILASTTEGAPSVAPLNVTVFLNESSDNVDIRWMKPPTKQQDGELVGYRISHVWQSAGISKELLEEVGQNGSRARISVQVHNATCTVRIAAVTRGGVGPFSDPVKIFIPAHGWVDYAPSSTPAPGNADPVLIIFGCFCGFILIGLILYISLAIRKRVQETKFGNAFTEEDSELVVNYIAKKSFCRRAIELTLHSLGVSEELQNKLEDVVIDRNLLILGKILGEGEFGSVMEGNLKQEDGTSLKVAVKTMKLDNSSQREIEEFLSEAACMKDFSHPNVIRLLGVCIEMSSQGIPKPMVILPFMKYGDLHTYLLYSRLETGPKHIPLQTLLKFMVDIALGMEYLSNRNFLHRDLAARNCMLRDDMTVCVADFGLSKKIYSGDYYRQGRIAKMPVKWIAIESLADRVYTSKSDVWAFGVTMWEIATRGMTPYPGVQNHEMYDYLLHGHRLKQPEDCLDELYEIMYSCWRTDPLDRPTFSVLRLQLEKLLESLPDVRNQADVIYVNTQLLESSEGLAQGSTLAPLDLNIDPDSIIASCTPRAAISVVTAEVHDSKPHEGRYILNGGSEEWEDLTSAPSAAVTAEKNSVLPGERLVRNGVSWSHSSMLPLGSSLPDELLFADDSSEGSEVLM
Protocol: MER Kinase: The assay of small molecular compounds for inhibiting the activity of MER kinase is based on the LANCE TR-FRET technology of Perkin Elmer Inc., and the assay method is as follows:1. Dilution of compounds: a total of 11 concentrations were obtained using a 3-fold gradient dilution from the highest concentration of 2500 nM (the maximum final concentration of the drug used in this assay was 2500 nM, and the minimum final concentration was 0.042 nM).2. 2.5 μL of the gradient-diluted compounds were taken with a transfer pipette to a 384-well plate.3. Addition of enzyme: 5 μL of 2×MER kinase solution (with a concentration of 1 nM) was taken with a transfer pipette to the corresponding reaction well of the 384-well plate, mixed well and pre-reacted at room temperature for 5 minutes.4. 2.5 μL 4× ULight-labeled Ploy GT (with a concentration of 200 nM)/ATP (with a concentration of 20 μM) mixture was taken with a transfer pipette to the corresponding reaction well of the 384-well plate.5. Negative control: 2.5 μL/well 4× substrate/ATP mixture and 7.5 μL 1× Kinase Assay Buffer were added to the wells of the 384-well plate.Positive control: 2.5 μL/well 4× substrate/ATP mixture, 2.5 μL/well 1× Kinase Assay Buffer containing 4% DMSO, and 5 μL/well 2×MER kinase solution were added to the 384-well plate. The final concentration of DMSO in the reaction system was 1%.6. The mixture was mixed well and then centrifuged and reacted at room temperature in dark for 60 min.7. Termination of the enzymatic reaction: 5 μL of 4× stop solution was taken with a transfer pipette to the wells of the 384-well plate, mixed and then centrifuged, and reacted at room temperature for 5 min.8. Development of the reaction: 5 μL of 4× detection solution was taken with a transfer pipette to the wells of the 384-well plate for color development, and the mixture was mixed and then centrifuged and reacted at room temperature for 60 min.9. The 384-well plate was placed into the Envision plate reader and the signal was detected using the appropriate program.10. Analysis and processing of the raw data:The drug concentrations and the corresponding inhibition rates were input into GraphPad Prism5 for calculation, and the inhibition rate of the compounds were calculated as follows: inhibition rate (%)=(reading of positive well−reading of experimental well)/(reading of positive control well−reading of negative control well)×100%.

[2] = target: High affinity nerve growth factor receptor (Homo sapiens, UniProt P04629)
Protocol: TRKA Kinase: The assay of small molecular compounds for inhibiting the activity of TRKA kinase is based on the LANCE TR-FRET technology of Perkin Elmer Inc., and the assay method is as follows:1. […] 2.5 μL of the gradient-diluted compounds were taken with a transfer pipette to a 384-well plate.3. Addition of enzyme: 5 μL of 2×TRKA kinase solution (with a concentration of 2 nM) was taken with a transfer pipette to the corresponding reaction well of the 384-well plate, mixed well and pre-reacted at room temperature for 5 minutes.4. 2.5 μL 4× Ultra ULight-labeled TK Peptide (with a concentration of 400 nM)/ATP (with a concentration of 40 μM) mixture was taken with a transfer pipette to the corresponding reaction well of the 384-well plate.5. Negative control: 2.5 μL/well 4× substrate/ATP mixture and 7.5 μL 1× Kinase Assay Buffer were added to the wells of the 384-well plate.Positive control: 2.5 μL/well 4× substrate/ATP mixture, 2.5 μL/well 1× Kinase Assay Buffer containing 4% DMSO, and 5 μL/well 2×TRKA kinase solution were added to the 384-well plate. The final concentration of DMSO in the reaction system was 1%.6. The mixture was mixed well and then centrifuged and reacted at room temperature in dark for 60 min.7. Termination of the enzymatic reaction: 5 μL of 4× stop solution was taken with a transfer pipette to the wells of the 384-well plate, mixed and then centrifuged, and reacted at room temperature for 5 min.8. Development of the reaction: 5 μL of 4× detection solution was taken with a transfer pipette to the wells of the 384-well plate for color development, and the mixture was mixed and then centrifuged and reacted at room temperature for 60 min.9. The 384-well plate was placed into the Envision plate reader and the signal was detected using the appropriate program.10.

[3] = target: Vascular endothelial growth factor receptor 2 (Homo sapiens, UniProt P35968)
Protocol: VEGFR-2 Kinase: The assay is based on the LANCE TR-FRET technology of Perkin Elmer Inc., and the assay method is as follows:1. Dilution of compounds: a total of 11 concentrations were obtained using a 3-fold gradient dilution from the highest concentration of 2500 nM (the maximum final concentration of the drug used in this assay was 2500 nM, and the minimum final concentration was 0.042 nM).2. 2.5 μL of the gradient-diluted compounds were taken with a transfer pipette to a 384-well plate.3. Addition of enzyme: 5 μL of 2×VEGFR2 kinase solution (with a concentration of 0.5 nM) was taken with a transfer pipette to the corresponding reaction well of the 384-well plate, mixed well and pre-reacted at room temperature for 30 minutes.4. 2.5 μL 4× Ultra ULight™-JAK-1 (Tyr1023) Peptide (with a concentration of 200 nM)/ATP (with a concentration of 40 μM) mixture was taken with a transfer pipette to the corresponding reaction well of the 384-well plate.5. Negative control: 2.5 μL/well 4× substrate/ATP mixture and 7.5 μL 1× Kinase Assay Buffer were added to the wells of the 384-well plate.6. Positive control: 2.5 μL/well 4× substrate/ATP mixture, 2.5 μL/well 1× Kinase Assay Buffer containing 16% DMSO, and 5 μL/well 2×VEGFR-2 kinase solution were added to the 384-well plate. […] The 384-well plate was placed into the Envision plate reader and the signal was detected using the appropriate program.11. […]

[4] = target: Hepatocyte growth factor receptor (Homo sapiens, UniProt P08581)
Protocol: c-MET Kinase: The assay is based on the LANCE TR-FRET technology of Perkin Elmer Inc., and the assay method is as follows:1. Dilution of compounds: a total of 11 concentrations were obtained using a 3-fold gradient dilution from the highest concentration of 2500 nM (the maximum final concentration of the drug used in this assay was 2500 nM, and the minimum final concentration was 0.042 nM).2. 2.5 μL of the gradient-diluted compounds were taken with a transfer pipette to a 384-well plate.3. Addition of enzyme: 5 μL of 2×c-MET kinase solution (with a concentration of 2 nM) was taken with a transfer pipette to the corresponding reaction well of the 384-well plate, mixed well and pre-reacted at room temperature for 5 minutes.4. 2.5 μL 4× Ultra ULight™-JAK-1 (Tyr1023) Peptide (with a concentration of 400 nM)/ATP (with a concentration of 40 μM) mixture was taken with a transfer pipette to the corresponding reaction well of the 384-well plate.5. Negative control: 2.5 μL/well 4× substrate/ATP mixture and 7.5 μL 1× Kinase Assay Buffer were added to the wells of the 384-well plate.6. Positive control: 2.5 μL/well 4× substrate/ATP mixture, 2.5 μL/well 1× Kinase Assay Buffer containing 16% DMSO, and 5 μL/well 2× c-MET kinase solution were added to the 384-well plate. The final concentration of DMSO in the reaction system was 4%.7. The mixture was mixed well and then centrifuged and reacted at room temperature in dark for 60 min.8. Termination of the enzymatic reaction: 5 μL of 4× stop solution was taken with a transfer pipette to the wells of the 384-well plate, mixed and then centrifuged, and reacted at room temperature for 5 min.9. Development of the reaction: 5 μL of 4× detection solution was taken with a transfer pipette to the wells of the 384-well plate for color development, and the mixture was mixed and then centrifuged and reacted at room temperature for 60 min.10. The 384-well plate was placed into the Envision plate reader and the signal was detected using the appropriate program.11. Analysis and processing of the raw data:12. […]

Measured: IC50

Chain of Hepatocyte growth factor receptor (P08581 whole entry): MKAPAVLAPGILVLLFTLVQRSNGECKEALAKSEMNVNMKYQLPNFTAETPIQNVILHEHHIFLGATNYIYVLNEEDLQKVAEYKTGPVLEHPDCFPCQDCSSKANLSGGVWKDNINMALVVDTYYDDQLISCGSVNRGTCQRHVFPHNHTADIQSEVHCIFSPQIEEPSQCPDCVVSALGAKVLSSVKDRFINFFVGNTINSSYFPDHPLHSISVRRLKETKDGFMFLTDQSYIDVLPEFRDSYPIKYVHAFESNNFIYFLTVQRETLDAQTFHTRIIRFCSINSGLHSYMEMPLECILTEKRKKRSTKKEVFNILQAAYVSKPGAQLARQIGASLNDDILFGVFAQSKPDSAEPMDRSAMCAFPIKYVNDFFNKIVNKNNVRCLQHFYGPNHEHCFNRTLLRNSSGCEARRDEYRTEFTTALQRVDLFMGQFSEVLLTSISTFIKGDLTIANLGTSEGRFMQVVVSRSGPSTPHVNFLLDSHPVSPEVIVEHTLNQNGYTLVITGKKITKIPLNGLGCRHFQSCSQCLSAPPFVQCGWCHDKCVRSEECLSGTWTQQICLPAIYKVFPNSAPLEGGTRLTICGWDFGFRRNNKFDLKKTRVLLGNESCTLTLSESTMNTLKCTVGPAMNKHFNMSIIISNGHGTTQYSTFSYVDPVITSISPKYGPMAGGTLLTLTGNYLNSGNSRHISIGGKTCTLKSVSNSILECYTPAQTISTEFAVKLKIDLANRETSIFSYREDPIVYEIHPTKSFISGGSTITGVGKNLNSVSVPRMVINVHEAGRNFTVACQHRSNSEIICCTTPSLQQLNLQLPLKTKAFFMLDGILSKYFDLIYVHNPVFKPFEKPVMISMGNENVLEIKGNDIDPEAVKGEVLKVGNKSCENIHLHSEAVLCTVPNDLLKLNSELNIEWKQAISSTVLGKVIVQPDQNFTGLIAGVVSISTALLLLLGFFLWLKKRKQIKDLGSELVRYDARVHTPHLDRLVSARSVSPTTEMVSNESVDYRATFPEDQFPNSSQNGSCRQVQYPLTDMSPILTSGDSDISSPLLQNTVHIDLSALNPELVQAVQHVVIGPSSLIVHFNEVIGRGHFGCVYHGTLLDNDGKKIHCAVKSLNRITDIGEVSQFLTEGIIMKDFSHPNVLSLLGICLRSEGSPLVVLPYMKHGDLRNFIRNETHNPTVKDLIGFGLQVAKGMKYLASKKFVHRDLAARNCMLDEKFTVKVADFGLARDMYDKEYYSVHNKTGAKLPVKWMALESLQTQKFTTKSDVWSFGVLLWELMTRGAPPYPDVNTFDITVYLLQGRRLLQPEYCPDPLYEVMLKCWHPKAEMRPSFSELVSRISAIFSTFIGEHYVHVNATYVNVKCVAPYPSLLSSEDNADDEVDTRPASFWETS
Chain of High affinity nerve growth factor receptor (P04629 whole entry): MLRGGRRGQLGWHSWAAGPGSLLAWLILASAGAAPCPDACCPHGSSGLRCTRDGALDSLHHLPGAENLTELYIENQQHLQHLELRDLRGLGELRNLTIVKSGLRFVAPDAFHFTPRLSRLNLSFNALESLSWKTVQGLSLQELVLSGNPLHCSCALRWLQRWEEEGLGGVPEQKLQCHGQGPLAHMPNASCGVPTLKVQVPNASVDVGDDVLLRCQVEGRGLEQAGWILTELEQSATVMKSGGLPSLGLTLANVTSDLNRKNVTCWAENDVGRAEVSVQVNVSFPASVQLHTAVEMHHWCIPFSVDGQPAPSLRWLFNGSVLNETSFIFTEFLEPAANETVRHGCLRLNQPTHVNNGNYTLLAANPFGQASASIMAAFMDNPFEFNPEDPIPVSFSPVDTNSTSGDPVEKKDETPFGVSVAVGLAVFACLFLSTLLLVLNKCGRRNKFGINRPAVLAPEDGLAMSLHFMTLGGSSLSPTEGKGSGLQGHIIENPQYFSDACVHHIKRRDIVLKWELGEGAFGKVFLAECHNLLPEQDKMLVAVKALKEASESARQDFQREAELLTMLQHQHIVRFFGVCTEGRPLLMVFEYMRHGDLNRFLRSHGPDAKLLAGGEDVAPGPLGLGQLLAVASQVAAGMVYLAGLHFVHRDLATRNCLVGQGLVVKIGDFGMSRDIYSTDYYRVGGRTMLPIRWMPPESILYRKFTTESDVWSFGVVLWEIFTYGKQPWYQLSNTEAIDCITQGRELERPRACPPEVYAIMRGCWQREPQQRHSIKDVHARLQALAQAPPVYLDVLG
Chain of Vascular endothelial growth factor receptor 2 (P35968 whole entry): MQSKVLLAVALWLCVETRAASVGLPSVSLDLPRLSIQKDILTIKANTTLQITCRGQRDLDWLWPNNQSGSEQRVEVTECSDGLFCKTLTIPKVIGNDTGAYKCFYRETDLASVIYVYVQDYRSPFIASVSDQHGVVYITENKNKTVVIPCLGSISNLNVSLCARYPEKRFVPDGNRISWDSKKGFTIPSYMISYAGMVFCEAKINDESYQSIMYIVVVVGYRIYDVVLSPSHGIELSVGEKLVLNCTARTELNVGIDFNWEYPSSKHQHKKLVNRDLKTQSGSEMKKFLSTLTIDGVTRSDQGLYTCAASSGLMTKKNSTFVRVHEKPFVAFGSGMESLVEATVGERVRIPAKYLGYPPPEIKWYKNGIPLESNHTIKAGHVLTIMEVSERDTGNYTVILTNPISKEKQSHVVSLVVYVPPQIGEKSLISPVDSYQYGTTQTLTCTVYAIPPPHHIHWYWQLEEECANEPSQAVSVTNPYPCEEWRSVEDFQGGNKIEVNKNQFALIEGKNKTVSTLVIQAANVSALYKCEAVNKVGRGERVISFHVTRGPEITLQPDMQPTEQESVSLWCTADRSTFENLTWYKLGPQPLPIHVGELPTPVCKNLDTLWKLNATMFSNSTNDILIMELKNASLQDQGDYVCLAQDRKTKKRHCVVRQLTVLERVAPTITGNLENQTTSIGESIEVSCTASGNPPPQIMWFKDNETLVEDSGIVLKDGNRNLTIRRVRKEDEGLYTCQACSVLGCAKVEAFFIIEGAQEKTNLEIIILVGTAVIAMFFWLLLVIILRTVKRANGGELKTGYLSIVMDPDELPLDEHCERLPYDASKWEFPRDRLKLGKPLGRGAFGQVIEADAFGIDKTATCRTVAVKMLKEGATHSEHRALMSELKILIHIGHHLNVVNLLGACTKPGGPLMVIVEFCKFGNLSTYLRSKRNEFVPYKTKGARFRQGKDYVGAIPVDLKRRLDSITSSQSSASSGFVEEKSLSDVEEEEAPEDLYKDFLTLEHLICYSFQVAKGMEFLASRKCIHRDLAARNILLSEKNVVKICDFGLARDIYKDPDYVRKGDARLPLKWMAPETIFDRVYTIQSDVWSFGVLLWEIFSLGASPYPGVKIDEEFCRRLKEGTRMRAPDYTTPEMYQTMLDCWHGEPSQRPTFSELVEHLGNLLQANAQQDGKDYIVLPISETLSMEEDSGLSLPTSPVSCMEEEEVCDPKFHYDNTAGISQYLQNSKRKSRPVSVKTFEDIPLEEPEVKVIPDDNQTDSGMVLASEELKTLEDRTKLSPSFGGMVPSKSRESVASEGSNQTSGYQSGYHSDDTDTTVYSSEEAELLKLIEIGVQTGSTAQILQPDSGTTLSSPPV

CCOc1ccn(-c2ccc(F)cc2)c(=O)c1C(=O)Nc1ccc(Oc2ccnc3cc(OCCCCCCN(C)C)c4c(c23)OCCO4)c(F)c1 [US12202835, Example 60]
< 50 nM: all assays above

CCOc1ccn(-c2ccc(F)cc2)c(=O)c1C(=O)Nc1ccc(Oc2ccnc3cc(OCCCN(C)C)c4c(c23)OCCO4)c(F)c1 [US12202835, Example 61]
< 50 nM: all assays above

CC(C)n1cc(C(=O)Nc2ccc(Oc3ccnc4cc(OCCCCCCN(C)C)c5c(c34)OCCO5)c(F)c2)c(=O)n(-c2ccc(F)cc2)c1=O [US12202835, Example 85]
< 50 nM: [1] | [2]

CN(C)CCCOc1cc2nccc(Oc3ccc(NC(=O)c4cn(C)c(=O)n(-c5ccc(F)cc5)c4=O)cc3F)c2c2c1OCCO2 [US12202835, Example 86]
< 50 nM: [1] | [2] | [4]
